Source: patent US12428377B2, “Sodium-hydrogen exchanger 3 inhibitor compounds” (Eli Lilly and Company, priority 2019, dated 2025)
pIC50: −log10 of the molar value.

Biological target: T1, SGLT1 (Homo sapiens, UniProt P13866)
T1 sequence (P13866 1-664): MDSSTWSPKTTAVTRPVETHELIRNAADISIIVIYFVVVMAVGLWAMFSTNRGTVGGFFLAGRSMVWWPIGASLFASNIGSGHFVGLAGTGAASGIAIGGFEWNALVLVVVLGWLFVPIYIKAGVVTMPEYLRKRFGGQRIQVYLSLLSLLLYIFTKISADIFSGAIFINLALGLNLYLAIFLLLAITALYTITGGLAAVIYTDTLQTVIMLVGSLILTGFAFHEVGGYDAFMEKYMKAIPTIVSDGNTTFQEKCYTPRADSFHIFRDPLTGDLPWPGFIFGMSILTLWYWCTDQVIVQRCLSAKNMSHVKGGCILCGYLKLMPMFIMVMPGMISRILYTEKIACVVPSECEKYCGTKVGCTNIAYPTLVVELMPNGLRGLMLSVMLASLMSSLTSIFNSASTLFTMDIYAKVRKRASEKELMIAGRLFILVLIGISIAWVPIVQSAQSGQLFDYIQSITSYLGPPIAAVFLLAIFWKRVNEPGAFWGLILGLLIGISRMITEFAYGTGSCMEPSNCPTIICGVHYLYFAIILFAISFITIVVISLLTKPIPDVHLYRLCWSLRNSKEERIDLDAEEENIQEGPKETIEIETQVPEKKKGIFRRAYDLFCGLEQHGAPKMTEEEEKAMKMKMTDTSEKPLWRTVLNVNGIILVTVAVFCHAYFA
Experiment: SGLT1 inhibition (selectivity)

CN1Cc2c(Cl)cc(Cl)cc2[C@H](c2cccc(S(=O)(=O)NCCOCCOCCN/C(=N\C(N)=O)NCCCCN/C(=N/C(N)=O)NCCOCCOCCNS(=O)(=O)c3cccc([C@@H]4CN(C)Cc5c(Cl)cc(Cl)cc54)c3)c2)C1.Cl.Cl [Example 2, [[4-[[N′-Carbamoyl-N-[2-[2-[2-[[3-[(4S)-6,8-dichloro-2-methyl-3,4-dihydro-1H-isoquinolin-4-yl]phenyl]sulfonylamino]ethoxy]ethoxy]ethyl]carbamimidoyl]amino]butylamino]-[2-[2-[2-[[3-[(4S)-6,8-dichloro-2-methyl-3,4-dihydro-1H-isoquinolin-4-yl]phenyl]sulfonylamino]ethoxy]ethoxy]ethylamino]methylene]urea dihydrochloride]
pIC50: 5.18
